The values below come from paper PMC12388125, “Design, Synthesis, and Pharmacological Activity of the N-(4-(1H-1,2,4-Triazol-1-yl)phenyl)-substituted-amide Derivatives” (Molecules, 2025).

For one series, the system named is MES-induced seizures. The series can be described thus: animal or person. It counts as in vivo, Kunming mice. Particulars: for minimal effective dose: Mus musculus, ip, doses 30, 100, 300 mg/kg, read-out: MES, dose at which at least one of three animals was protected; for ED50 (MES) / PI (TD50/ED50) MES: 0.5 h; for ED50 (MES): value (95% CI); for PI (TD50/ED50) MES: Kunming, mouse, in vivo. How it is done: (§1) Pharmacological tests were performed using two experimental animal models, MES and scPTZ, which were divided into three dosage groups of 30, 100, and 300 mg/kg, and the anticonvulsant activity of the target compounds 6a–m and 9a–g, after 0.5 and 4 h of administration, respectively, were tested. Carbamazepine, which is effective in the MES model, was chosen as a positive control, and ethosuximide, which is effective in the scPTZ model, was chosen as a positive control. […]
Protection against the spread of
extension component of the seizure. […]

In series [1] the test system is pentylenetetrazole-induced clonic seizures. Kind of series: animal or person. The class given is in vivo, Kunming mice. The settings on record: for minimal effective dose: Mus musculus, sc, read-out: scPTZ, dose at which at least one of three animals was protected; for ED50 (scPTZ) / PI (TD50/ED50) scPTZ: 0.5 h; for ED50 (scPTZ): value (95% CI); for PI (TD50/ED50) scPTZ: Kunming, mouse, in vivo. As to the method: as §1
The test compound wa s
Absence of clonic spasms indicated a […]

Another series has as its system mice. Kind of series: Rotarod (ROT) neurotoxicity test. Particulars: for NT (neurotoxicity, ROT), dose at which at least one of three animals showed neurotoxicity: doses 100, 300 mg/kg; for TD50 (ROT): 0.5 h, value (95% CI).
The mark [2] stands for this setting: 0.5 h after administration, doses 30, 100, 300 mg/kg.
The mark [3] stands for this setting: 4 h after administration, doses 30, 100, 300 mg/kg.

Read-outs that look alike come from different tables or passages of the source.

Description for mice: The neurotoxicity of the target compounds was tested using the ROT experimental model, which was divided into two dose groups, 100 and 300 mg/kg, and tested after 0.5 and 4 h of administration, respectively.
The neurotoxicity of the target compounds was determined using the ROT experimental model.
The neurotoxicity of the compounds wa s measured in mice using the rotarod test. Mice
we r e trained to stay on an accelerating rotarod (diameter, 3.2 cm) rotating at 10 rpm. Trained
animals we r e injected with the test compounds (i.p.) and neurotoxicity wa s measured as the
inability of the animal to maintain equilibrium on the rod for at least 1 min in each of the

Turning to `CCC(=O)Nc1ccc(-n2cncn2)cc1` [Compound 9a, N-(4-(1H-1,2,4-triazol-1-yl)phenyl)propionamide], the minimal effective dose in the series with MES-induced seizures (0.5 h after administration) was determined as 100 mg/kg; in the series on MES-induced seizures (4 h after administration) it was 300 mg/kg; in series [1] (setting [2]), 100 mg/kg; in series [1] (setting [3]) it was 100 mg/kg. The “NT (neurotoxicity, ROT), dose at which at least one of three animals showed neurotoxicity” value (“NT (neurotoxicity, ROT), dose at which” for short) with mice (0.5 h after administration) and in the series with mice (4 h after administration) was above 300 mg/kg in each case.
For `CCCC(=O)Nc1ccc(-n2cncn2)cc1` [Compound 9b, N-(4-(1H-1,2,4-triazol-1-yl)phenyl)butyramide], the minimal effective dose with MES-induced seizures (0.5 h after administration) turned out to be 30 mg/kg; in the series on MES-induced seizures (4 h after administration) it was 100 mg/kg; in series [1] (setting [2]) it was 30 mg/kg; in series [1] (setting [3]) it was 100 mg/kg. The “NT (neurotoxicity, ROT), dose at which” value in the series with mice (0.5 h after administration) was 300 mg/kg; with mice (4 h after administration), above 300 mg/kg.
As for `O=C(Nc1ccc(-n2cncn2)cc1)c1ccccc1Cl` [Compound 6b, N-(4-(1H-1,2,4-triazol-1-yl)phenyl)-2-chlorobenzamide], the minimal effective dose with MES-induced seizures (0.5 h after administration) amounted to 300 mg/kg; in the series with MES-induced seizures (4 h after administration), 100 mg/kg; in series [1] (setting [2]), 100 mg/kg; in series [1] (setting [3]), 300 mg/kg. The “NT (neurotoxicity, ROT), dose at which” value with mice (0.5 h after administration) and in the series with mice (4 h after administration) was above 300 mg/kg in each case.
Turning to `O=C(Nc1ccc(-n2cncn2)cc1)c1ccc(C(F)(F)F)cc1` [Compound 6j, N-(4-(1H-1,2,4-triazol-1-yl)phenyl)-4-(trifluoromethyl)benzamide], the minimal effective dose is 100 mg/kg in the series on MES-induced seizures (0.5 h after administration), 300 mg/kg in the series on MES-induced seizures (4 h after administration), 100 mg/kg in series [1] (setting [2]) and 100 mg/kg in series [1] (setting [3]). The “NT (neurotoxicity, ROT), dose at which” value with mice (0.5 h after administration) and in the series on mice (4 h after administration) was above 300 mg/kg each time.
With `O=C(Nc1ccc(-n2cncn2)cc1)c1cccc(C(F)(F)F)c1` [Compound 6i, N-(4-(1H-1,2,4-triazol-1-yl)phenyl)-3-(trifluoromethyl)benzamide], the ED50 (MES) in the series with MES-induced seizures is 21.9 mg/kg. Moreover, the “PI (TD50/ED50) MES” value in the series on MES-induced seizures is reported as 17.4. The minimal effective dose is 30 mg/kg in the series on MES-induced seizures (0.5 h after administration), 30 mg/kg with MES-induced seizures (4 h after administration), 30 mg/kg in series [1] (setting [2]) and 100 mg/kg in series [1] (setting [3]). This compound also had an ED50 (scPTZ) in series [1] of 22.8 mg/kg. The “PI (TD50/ED50) scPTZ” value in series [1] was found to be 16.7. For the same compound, the “TD50 (ROT)” value in the series with mice is given as 381.4 (414.6–350.8) mg. The “NT (neurotoxicity, ROT), dose at which” value in the series with mice (0.5 h after administration) and with mice (4 h after administration) was above 300 mg/kg throughout.
Consider `CCCCCCCCC(=O)Nc1ccc(-n2cncn2)cc1` [Compound 9g, N-(4-(1H-1,2,4-triazol-1-yl)phenyl)nonanamide], for which the minimal effective dose in the series with MES-induced seizures (0.5 h after administration) was 300 mg/kg; in the series with MES-induced seizures (4 h after administration) it was 300 mg/kg; in series [1] (setting [2]) it was 300 mg/kg; in series [1] (setting [3]), above 300 mg/kg. The “NT (neurotoxicity, ROT), dose at which” value in the series on mice (0.5 h after administration) and in the series on mice (4 h after administration) was above 300 mg/kg throughout.
`CCCCC(=O)Nc1ccc(-n2cncn2)cc1` [Compound 9c, N-(4-(1H-1,2,4-triazol-1-yl)phenyl)pentanamide] yielded an ED50 (MES) in the series on MES-induced seizures of 17.3 mg/kg. Also, in the series on MES-induced seizures, the “PI (TD50/ED50) MES” value is 15.0. Moreover, the minimal effective dose with MES-induced seizures (0.5 h after administration) was found to be 30 mg/kg; with MES-induced seizures (4 h after administration), 30 mg/kg; in series [1] (setting [2]), 30 mg/kg; in series [1] (setting [3]) it was 100 mg/kg. For the same compound, in series [1], the ED50 (scPTZ) was found to be 35.5 mg/kg. Also, the “PI (TD50/ED50) scPTZ” value in series [1] is on record as 7.3. Moreover, the “TD50 (ROT)” value in the series with mice is reported as 260.0 (282.7–239.2) mg. In addition, the figures for the “NT (neurotoxicity, ROT), dose at which” value with mice (0.5 h after administration) and in the series on mice (4 h after administration) were 300 mg/kg and above 300 mg/kg, respectively.
Take `Cc1ccc(C(=O)Nc2ccc(-n3cncn3)cc2)cc1` [Compound 6m, N-(4-(1H-1,2,4-triazol-1-yl)phenyl)-4-methylbenzamide]: the minimal effective dose stood at 300 mg/kg with MES-induced seizures (0.5 h after administration), 300 mg/kg with MES-induced seizures (4 h after administration), 100 mg/kg in series [1] (setting [2]) and 300 mg/kg in series [1] (setting [3]). In addition, the “NT (neurotoxicity, ROT), dose at which” value with mice (0.5 h after administration) and with mice (4 h after administration) was above 300 mg/kg each time.
Regarding `Cc1ccccc1C(=O)Nc1ccc(-n2cncn2)cc1` [Compound 6k, N-(4-(1H-1,2,4-triazol-1-yl)phenyl)-2-methylbenzamide], the minimal effective dose in the series on MES-induced seizures (0.5 h after administration) came to 30 mg/kg; in the series on MES-induced seizures (4 h after administration) it was 100 mg/kg; in series [1] (setting [2]), 100 mg/kg; in series [1] (setting [3]), 300 mg/kg. Further, the “NT (neurotoxicity, ROT), dose at which” value in the series on mice (0.5 h after administration) and with mice (4 h after administration) was above 300 mg/kg in each case.
As for `O=C(Nc1ccc(-n2cncn2)cc1)c1ccccc1F` [Compound 6e, N-(4-(1H-1,2,4-triazol-1-yl)phenyl)-2-fluorobenzamide], the minimal effective dose (with MES-induced seizures (0.5 h after administration); in the series with MES-induced seizures (4 h after administration); in series [1] (setting [2]); in series [1] (setting [3])) was 100 mg/kg throughout. The “NT (neurotoxicity, ROT), dose at which” value in the series on mice (0.5 h after administration) and in the series with mice (4 h after administration) was above 300 mg/kg throughout.
In the case of `O=C(Nc1ccc(-n2cncn2)cc1)c1ccccc1` [Compound 6a, N-(4-(1H-1,2,4-triazol-1-yl)phenyl)benzamide], the minimal effective dose is 300 mg/kg with MES-induced seizures (0.5 h after administration), 300 mg/kg with MES-induced seizures (4 h after administration), 100 mg/kg in series [1] (setting [2]) and 100 mg/kg in series [1] (setting [3]). The “NT (neurotoxicity, ROT), dose at which” value in the series on mice (0.5 h after administration) and in the series on mice (4 h after administration) was above 300 mg/kg throughout.
In the case of `O=C(Nc1ccc(-n2cncn2)cc1)c1ccccc1C(F)(F)F` [Compound 6h, N-(4-(1H-1,2,4-triazol-1-yl)phenyl)-2-(trifluoromethyl)benzamide], the minimal effective dose is 100 mg/kg in the series with MES-induced seizures (0.5 h after administration), 300 mg/kg in the series with MES-induced seizures (4 h after administration), 300 mg/kg in series [1] (setting [2]) and above 300 mg/kg in series [1] (setting [3]). For the same compound, the “scPTZ, dose at which at least one of three animals was protected” value in series [1] (setting [3]) is “inactive”. Further, the “NT (neurotoxicity, ROT), dose at which” value in the series on mice (0.5 h after administration) and in the series with mice (4 h after administration) was above 300 mg/kg each time.
For the compound `CCCCCCCC(=O)Nc1ccc(-n2cncn2)cc1` [Compound 9f, N-(4-(1H-1,2,4-triazol-1-yl)phenyl)octanamide], the minimal effective dose in the series with MES-induced seizures (0.5 h after administration) was 100 mg/kg; with MES-induced seizures (4 h after administration) it was 300 mg/kg; in series [1] (setting [2]), 300 mg/kg; in series [1] (setting [3]) it was above 300 mg/kg. Also, the “NT (neurotoxicity, ROT), dose at which” value in the series with mice (0.5 h after administration) and with mice (4 h after administration) was above 300 mg/kg each time.
Consider `O=C(Nc1ccc(-n2cncn2)cc1)c1cccc(Cl)c1` [Compound 6c, N-(4-(1H-1,2,4-triazol-1-yl)phenyl)-3-chlorobenzamide], for which the minimal effective dose with MES-induced seizures (0.5 h after administration) amounted to 100 mg/kg; with MES-induced seizures (4 h after administration), 300 mg/kg; in series [1] (setting [2]) it was 100 mg/kg; in series [1] (setting [3]) it was 100 mg/kg. Moreover, the “NT (neurotoxicity, ROT), dose at which” value with mice (0.5 h after administration) and with mice (4 h after administration) was above 300 mg/kg throughout.
As to `CCCCCCC(=O)Nc1ccc(-n2cncn2)cc1` [Compound 9e, N-(4-(1H-1,2,4-triazol-1-yl)phenyl)heptanamide], the minimal effective dose with MES-induced seizures (0.5 h after administration) was 100 mg/kg; with MES-induced seizures (4 h after administration), 300 mg/kg; in series [1] (setting [2]), 300 mg/kg; in series [1] (setting [3]), above 300 mg/kg. Moreover, the “NT (neurotoxicity, ROT), dose at which” value in the series on mice (0.5 h after administration) and in the series with mice (4 h after administration) was above 300 mg/kg in each case.
Consider `O=C(Nc1ccc(-n2cncn2)cc1)c1ccc(F)cc1` [Compound 6g, N-(4-(1H-1,2,4-triazol-1-yl)phenyl)-4-fluorobenzamide], for which the ED50 (MES) in the series with MES-induced seizures was 13.7 mg/kg. Also, the “PI (TD50/ED50) MES” value in the series on MES-induced seizures is 31.3. Also, the minimal effective dose was 30 mg/kg in the series with MES-induced seizures (0.5 h after administration), 30 mg/kg in the series with MES-induced seizures (4 h after administration), 30 mg/kg in series [1] (setting [2]) and 100 mg/kg in series [1] (setting [3]). This compound also returned an ED50 (scPTZ) in series [1] of 31.5 mg/kg. In addition, the “PI (TD50/ED50) scPTZ” value in series [1] amounted to 13.6. Also, in the series on mice, the “TD50 (ROT)” value was 429.1 (466.4–394.7) mg. The “NT (neurotoxicity, ROT), dose at which” value in the series with mice (0.5 h after administration) and with mice (4 h after administration) was above 300 mg/kg throughout.
